# What was measured:
# Experiment in all cases: relative viability (nuclei count vs DMSO), 5 days (fraction); higher = more cells survive
# [1] = compound: COc1cc2nc(N3CCCN(C)CC3)nc(NC3CCN(Cc4ccccc4)CC3)c2cc1OC + CC(=O)Nc1cccc(-n2c(=O)n(C3CC3)c(=O)c3c(Nc4ccc(I)cc4F)n(C)c(=O)c(C)c32)c1 [Trametinib] (partner 0.02 µM)
# Summary of the method: (§1)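 Each reported value is a median over duplicate plates. It expresses relative viability: treated-well nuclei count divided by vehicle-well nuclei count. Lung cancer cell lines in 1536-well plates were dosed by pin tool a day after seeding, alone with one drug or with a fixed anchor-drug dose plus five library-drug doses (not always all listed) in √10 steps, and nuclei were counted after 5 days.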
# [2] = compound: COc1cc2nc(N3CCCN(C)CC3)nc(NC3CCN(Cc4ccccc4)CC3)c2cc1OC + N=C(N)NC(=N)NCCc1ccccc1 [Phenformin] (partner 250 µM)
# Summary of the method: as §1
# [3] = compound: COc1cc2nc(N3CCCN(C)CC3)nc(NC3CCN(Cc4ccccc4)CC3)c2cc1OC + Nc1ncn([C@H]2C[C@H](O)[C@@H](CO)O2)c(=O)n1 [Decitabine] (partner 2 µM)
# Summary of the method: as §1
# AZD6482 + Navitoclax = compound: Cc1cc([C@@H](C)Nc2ccccc2C(=O)O)c2nc(N3CCOCC3)cc(=O)n2c1 [AZD6482] + CC1(C)CCC(c2ccc(Cl)cc2)=C(CN2CCN(c3ccc(C(=O)NS(=O)(=O)c4ccc(N[C@H](CCN5CCOCC5)CSc5ccccc5)c(S(=O)(=O)C(F)(F)F)c4)cc3)CC2)C1 [Navitoclax] (partner 0.5 µM)
# Summary of the method: as §1
Cell Line,relative viability ([1]; first compound 0.2 µM),relative viability ([1]; first compound 0.6325 µM),relative viability ([1]; first compound 2 µM),relative viability ([1]; first compound 6.325 µM),relative viability ([2]; first compound 0.2 µM),relative viability ([2]; first compound 0.6325 µM),relative viability ([2]; first compound 2 µM),relative viability ([2]; first compound 6.325 µM),relative viability ([3]; first compound 0.2 µM),relative viability ([3]; first compound 0.6325 µM),relative viability ([3]; first compound 2 µM),relative viability ([3]; first compound 6.325 µM),relative viability (AZD6482 + Navitoclax; first compound 0.253 µM),relative viability (AZD6482 + Navitoclax; first compound 0.8 µM),relative viability (AZD6482 + Navitoclax; first compound 2.53 µM),relative viability (AZD6482 + Navitoclax; first compound 8 µM),relative viability (AZD6482 + Navitoclax; first compound 0.08 µM)
SK-LU-1,0.554,0.541,0.516,0.459,0.537,0.517,0.616,0.462,0.644,0.706,0.703,0.618,0.74,1.04,0.834,0.93,
NCI-H1975,0.369,0.41,0.346,0.322,0.414,0.431,0.411,0.389,0.37,0.39,0.419,0.37,1.05,1.17,0.856,0.786,0.919
NCI-H1651,0.828,0.815,0.888,0.848,0.351,0.33,0.329,0.318,0.587,0.598,0.639,0.617,0.917,0.881,0.676,0.636,0.883
NCI-H441,0.366,0.532,0.422,0.33,0.821,0.859,1.03,0.85,0.239,0.225,0.3,0.206,0.59,0.563,0.702,0.632,0.752
LCLC-97TM1,0.181,0.166,0.225,0.195,0.432,0.401,0.503,0.465,0.244,0.202,0.225,0.27,0.257,0.38,0.211,0.211,0.59
NCI-H727,0.425,0.368,0.373,0.361,0.478,0.415,0.447,0.348,0.756,1.02,0.865,0.726,0.455,0.421,,0.235,0.469
NCI-H1355,0.419,0.458,0.433,0.385,0.485,0.46,0.508,0.463,0.349,0.343,0.343,0.375,0.697,0.711,0.588,0.61,0.551
HOP-62,0.396,0.434,0.459,0.361,0.684,0.629,0.721,0.641,0.214,0.201,0.198,0.216,1.17,1.28,0.791,1.12,1.19
NCI-H2085,0.504,0.504,0.612,0.525,0.776,0.743,0.786,0.641,0.53,0.531,0.594,0.559,0.585,0.538,0.395,0.462,0.803

# — the supplement of paper PMC10307832
